Laboratory results reported in patent US12622899B2 (PureTech LYT 100, Inc., priority 2018, dated 2026).

Columns and labels:
[1] = system: patients with Idiopathic Pulmonary Fibrosis (IPF); assay: IPF trial Part A (26-week double-blind): efficacy, FVC and FVCpp, time to progression; type: in vivo, human; settings: for FVC, Bayesian Posterior Mean Difference vs. Placebo / FVC, Frequentist Adjusted Mean Difference vs. Placebo / FVCpp, Bayesian Posterior Mean comparison vs. Placebo / FVCpp, Frequentist Adjusted Mean comparison vs. Placebo / Treatment effect, FVC, versus placebo / Treatment effect, FVCpp, versus placebo: 26 weeks
Description: The primary objective was to determine the dose(s) to carry into Phase 3. […] Patients were randomized to one of the four treatments in a 1:1:1:1 ratio and stratified based on prior exposure to nintedanib (<6 months) versus nintedanib-naïve patients. Patients who completed the Double-blind Treatment Period (Part A) were offered participation in the Long-term Extension (Part B). […] For patients who participated in Part B, the follow-up was conducted at the end of Part B. A graphical illustration of an embodiment of the trial design is provided as FIG. 24B.
Doses were adjusted according to safety and tolerability to avoid toxicity.
Note that, for all treatment groups, the first 7 days of treatment, one capsule was taken TID., Day 8 through Day 14, two capsules TID., and Day 15 forward, 3 capsules TID.
Weekly home FVC was assessed with an individual spirometer, which was supplied to each patient. The site used its own equipment for in-clinic FVC assessments. Spirometry measurements were performed according to the American Thoracic Society/European Respiratory Society (“An Official American Thoracic Society and European Respiratory Society Technical Statement Technical Statement” Am J Respir Crit Care Med. 2019; 200(8):e71-e83) and the study specific Pulmonary Function Manual, at timepoints specified in the Schedule of Assessments. Spirometry was conducted while the patient was in a seated position. The test was done in order to achieve three acceptable FVC measurements (three curves to be provided), and the best result selected according to the guidelines. The best of three efforts was defined as the highest FVC, obtained on any of the three blows meeting the ATS/ERS/JRS/ALAT 2019 criteria (Graham et al, 2019) with preferably a maximum of eight attempts.
Pulmonary function was measured in a standardized manner and results transmitted electronically during the visit immediately after performing the spirometry and evaluated by a central reader. In case the acceptability and repeatability criteria as specified by ATS/ERS/JRS/ALAT guidelines were not met, a repeat spirometry was performed during the same visit.
The primary efficacy endpoint was the rate of decline in FVC mL over 26 weeks. In addition, decline in FVC % predicted from baseline to Week 26 and by >10% and >5% was assessed.
The secondary endpoint was comparison of FVC % predicted change from baseline to Week 26.
The following parameters were measured or calculated as part of the spirometry assessment: • FVC (mL) and FVC % predicted (FVCpp) • FEV1 (mL) and percent predicted forced expiratory volume in 1 second (FEV1% p) • FEV1/FVC ratio • Forced expiratory flow between 25% and 75% of exhaled volume (FEF25-75) The ‘2012 Global Lung Function Initiative Equations’ was used to calculate the predicted values (Quanjer et al, “Multi-ethnic reference values for spirometry for the 3-95 year age range: the global lung function 2012 equations: Report of the Global Lung Function Initiative (GLI), ERS Task Force to establish improved Lung Function Reference Values.,” Eur Respir J, vol. 40(6), pp. 1324-1343, 2012). […]

older, healthy subjects = assay: Crossover study Part 2: safety and tolerability (TEAEs), fed and fasted; type: in vivo, human
Excerpt: Over-encapsulation was utilized to maintain study blind. […] Approximately 50 older healthy female and male adult subjects (1:1 ratio) were randomized into 1 of 2 cohorts:Cohort 1 or Cohort 2, N=˜25 subjects per cohort. Subjects in each cohort were randomized to treatment sequence as follows: • Sequence A: Pirfenidone to LYT-100 • Sequence B: LYT-100 to pirfenidone

CYP2C19 = target: T1, CYP2C19 (Homo sapiens, UniProt P33261); assay: In vitro stability with recombinant human CYP2C19; type: in vitro ADME; settings: recombinant human isozyme; read-out: t1/2 following incubation with CYP2C19 (converted)
T1 construct: host or cells: heterologous cell systems (not specified)
T1 sequence (P33261 whole entry): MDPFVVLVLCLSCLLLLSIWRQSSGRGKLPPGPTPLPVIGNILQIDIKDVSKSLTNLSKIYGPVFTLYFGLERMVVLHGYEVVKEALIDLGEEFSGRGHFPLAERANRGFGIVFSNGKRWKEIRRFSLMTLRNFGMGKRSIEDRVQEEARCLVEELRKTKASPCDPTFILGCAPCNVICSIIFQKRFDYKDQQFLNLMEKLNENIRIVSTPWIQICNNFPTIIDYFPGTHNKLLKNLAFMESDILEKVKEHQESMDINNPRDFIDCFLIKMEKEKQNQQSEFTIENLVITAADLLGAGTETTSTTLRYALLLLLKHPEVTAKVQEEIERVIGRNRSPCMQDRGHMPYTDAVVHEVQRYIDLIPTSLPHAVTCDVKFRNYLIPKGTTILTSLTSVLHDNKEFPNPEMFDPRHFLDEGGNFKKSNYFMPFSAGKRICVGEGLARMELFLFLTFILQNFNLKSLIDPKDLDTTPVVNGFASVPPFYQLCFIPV
Description: The half-life (t½) of each test article was determined.

[2] = deupirfenidone 550 mg TID, N=65
[3] = deupirfenidone 825 mg TID, N=63
[4] = deupirfenidone 825 mg TID, N=63, listed as Deupirfenidone
[5] = deupirfenidone 825 mg TID, N=63, listed as deupirfenidone

## [2H]C([2H])([2H])c1ccc(=O)n(-c2ccccc2)c1 [LYT-100, 5-(methyl-d3)-1-phenylpyridin-2-(1H)-one]
[1]; deupirfenidone 550 mg TID
  FVC, Bayesian Posterior Mean Difference vs. Placebo: 34.1 mL
  FVC, Frequentist Adjusted Mean Difference vs. Placebo: 31.8 mL
  FVCpp, Bayesian Posterior Mean comparison vs. Placebo: 1.47
  FVCpp, Frequentist Adjusted Mean comparison vs. Placebo: 1.62
  Treatment effect, FVC, versus placebo: 28.3%
  Treatment effect, FVCpp, versus placebo: 47.2%
  Cohen's D, FVC: 0.14
  Cohen's D, FVCpp: 0.23
[1]; deupirfenidone 825 mg TID
  FVC, Bayesian Posterior Mean Difference vs. Placebo: 90.9 mL
  FVC, Frequentist Adjusted Mean Difference vs. Placebo: 91.0 mL
  FVCpp, Bayesian Posterior Mean comparison vs. Placebo: 2.85
  FVCpp, Frequentist Adjusted Mean comparison vs. Placebo: 3.00
  Treatment effect, FVC, versus placebo: 80.9%
  Treatment effect, FVCpp, versus placebo: 87.5%
  Cohen's D, FVC: 0.40
  Cohen's D, FVCpp: 0.44
[1]; deupirfenidone 825 mg TID, listed as Deupirfenidone
  Treatment effect, FVC, versus placebo: 80.9%
[1]; deupirfenidone 825 mg TID, listed as deupirfenidone
  Treatment effect, FVC, versus placebo: 80.9%
[1]; LYT-100 825 mg TID (FIG. 45)
  6-month FVC decline compared with healthy older adults: in line with that seen for healthy adults >60 years
[1]; [2]
  Change from Baseline in FVC over 26 Weeks, Bayesian Posterior Mean (SE): −76.7 (28.60) mL
  Change from Baseline in FVC over 26 Weeks, Frequentist Adjusted Mean (SE): −80.7 (29.32) mL
  Change from Baseline in FVCpp over 26 Weeks, Bayesian Posterior Mean (SE): −1.80 (0.88)
  Change from Baseline in FVCpp over 26 Weeks, Frequentist Adjusted Mean (SE): −1.81 (0.886)
[1]; [3]
  Change from Baseline in FVC over 26 Weeks, Bayesian Posterior Mean (SE): −19.9 (28.29) mL
  Change from Baseline in FVCpp over 26 Weeks, Bayesian Posterior Mean (SE): −0.42 (0.88)
[1]; [4]
  Change from Baseline in FVC over 26 Weeks, Frequentist Adjusted Mean (SE): −21.5 (28.86) mL
  Change from Baseline in FVCpp over 26 Weeks, Frequentist Adjusted Mean (SE): −0.43 (0.872)
[1]; [5]
  Change from Baseline in FVC over 26 Weeks, Frequentist Adjusted Mean (SE): -21.5 mL
  Change from Baseline in FVCpp over 26 Weeks, Frequentist Adjusted Mean (SE): −0.43
older, healthy subjects; Part 2
  deaths or serious AEs: No deaths or serious AEs
older, healthy subjects; in vivo
  TEAEs leading to study discontinuation, subjects: one
CYP2C19
  half-life: 3.67 h
